Data reported in patent US20230285389A1, “USE OF CSF-1R KINASE INHIBITOR” (Shanghai Runshi Medical Technology Co., Ltd, priority 2020, published 2023).

Assays:
M-NFS-60 cells = assay: Proliferation of CSF-1R highly activated mouse myeloid leukemia cell M-NFS-60 (CCK-8); assay type: cell-based; settings: 72 h, read-out: IC50 inhibition of cell proliferation, M-NFS-60
[1] = tested on: CSF-1-induced bone marrow-derived macrophages (BMDM); assay: CSF-1-induced murine-derived macrophage (BMDM) survival (CCK-8); assay type: cell-based, BALB/c mice; settings: Mus musculus, 168 h, murine-derived macrophages, 100 ng/mL CSF-1, 7 days, mean±SD, read-out: IC50 inhibition of cell survival, BMDM (CSF-1)
Description: BALB/c mice (female, 6 weeks old, healthy) were sacrificed. Bone marrow cells were taken from their femurs and tibia, and seeded into a 96-well culture plate at appropriate densities (90 µL per well) after erythrobiasis treatment. 100 ng/mL of CSF-1 factor was added to each well to induce macrophages (Bone marrow-derived macrophages, BMDM), and compounds at various concentrations were added and the plate was allowed for incubation for 7 days. A solvent control group (negative control) was set. After 7 day-exposure of the cells to the compounds, 10 µL of CCK-8 reagent was added to each well. The culture plate was placed in an incubator at 37° C. for 2-4 h, and then was read with a full-wavelength microplate reader setting at the wavelength of 450 nm.

[2] = tested on: CSF-1-induced human macrophages (PBMC-derived CD14+ monocytes); assay: Survival of CSF-1-induced human macrophages from PBMC (CCK-8); assay type: cell-based; settings: 168 h; human-derived macrophages, 100 ng/mL CSF-1, 7 days; mean±SD; read-out: IC50 inhibition of cell survival, PBMC (CSF-1)
Description: Cryopreserved human-derived peripheral blood (peripheral blood from healthy donors) mononuclear cells (PBMCs) were taken out of liquid nitrogen for recovery. After recovery, the cells were re-suspended at 50 million/mL with the running buffer and DNAase I was added at a final concentration of 100 µg/mL and the plate was allowed for incubation for 15 min at room temperature. After centrifugation at 300 g for 5 min, the supernatant was discarded. The pellet was re-suspended at 50 million cells/mL with the running buffer, and the suspension was filtered through a 70 µM filter screen into a flow tube. The cells were sorted by using CD14+ monocyte negative selection beads sorting kit from […] company. According to the manufacture’s instructions, the specific experimental procedures were as follows.
After cells were re-suspended at 50 million cells/mL, 50 µL of the cocktail was added to each one mL of samples. The samples were incubated at room temperature for 5 min. The magnetic beads were vortexed for 30 sec, and added to the samples. The samples were incubated for further 5 min. The sample volumes were made up to 2.5 mL. The samples were placed on a magnetic frame ([…], #18000) for 2.5 min. […] The plate was placed in an incubator at 37° C. for 2-4 h, and then was read with an adjustable wavelength microplate reader setting at a wavelength of 450 nm.

[3] = cited from earlier work

Molecule: FC(F)(F)c1ccc(CNc2ccc(Cc3c[nH]c4ncc(Cl)cc34)cn2)cn1 [PLX3397, Pexidartinib, reference compound]
- IC50 (M-NFS-60 cells): 62.6 ± 15.8 nM
- IC50 [1]: 48.9 ± 5.9 nM
- IC50 [2]: 237 ± 14.7 nM
- black box warning on drug label ([3]; drug label): risk of severe and potentially fatal liver injury

Molecule: Bavencio: anti-PD-L1 antibody
- adverse response in treated patients ([3]; some of the patients): infusion-related response predominantly of grade 1-3 severity

Molecule: Yervoy: an anti-CTLA-4 antibody
- patients experiencing immune-related adverse events ([3]; treated patients): up to 60%
- share of immune-related adverse events that were severe (grade 3-4) ([3]; treated patients): 10-30%
